Key:
MAP Kinase ERK-2 = target: T1, MAP Kinase ERK-2 (Rattus norvegicus, UniProt P63086); experiment: Kinase selectivity assay MAP Kinase ERK-2; format: biochemical
T1 construct: polyhistidine (N); purchased BIOMOL SE-137; host or cells: E. coli
Protocol: (§1) Assays to test compound inhibition of other kinases were preformed using methods that measure the amount of phosphorylation of a biotinylated peptide substrate. Biotinylated peptide substrates were selected from the literature as appropriate for the enzyme being evaluated. The general procedure used to assay for kinase activity is as follows: a kinase reaction mix was prepared in 50 mM Tris-HCl pH=8, 10 mM MgCl2, 0.1 mM Na3VO4, 1 mM DTT, 10 μM ATP, 0.25–1 μM biotinylated peptide substrate, 0.2–0.8 μCuries per well ^33P-γ-ATP (2000–3000 Ci/mmol). Assay conditions vary slightly for each protein kinase, for example, insulin receptor kinase requires 10 mM MnCl2 for activity and Calmodulin-dependent protein kinase requires calmodulin and 2 mM CaCl2. The reaction mixture was dispensed into the wells of a streptavidin coated Flashplate and 1 μL test compound in 100% DMSO was added to a 100 μL reaction volume resulting in a final concentration of 1% DMSO in the reaction. Enzyme was diluted in 50 mM Tris-HCl pH=8.0, 0.1% BSA and added to each well. The reaction was incubated for one hour at 30° C. in the presence of a test compound. […] The plate was read on a scintillation counter to determine ^33P-γ-ATP incorporated into the immobilized peptide substrate. […] A maximum and minimum signal for the assay was determined on each plate. […]

Insulin Receptor Kinase = target: T2, Insulin Receptor Kinase (Homo sapiens, UniProt P06213); experiment: Kinase selectivity assay Insulin Receptor Kinase; format: biochemical
T2 construct: consists of residues 941–1313 of the cytoplasmic domain of the beta-subunit of the human insulin receptor; purchased BIOMOL SE-195
T2 sequence (P06213 980-1352): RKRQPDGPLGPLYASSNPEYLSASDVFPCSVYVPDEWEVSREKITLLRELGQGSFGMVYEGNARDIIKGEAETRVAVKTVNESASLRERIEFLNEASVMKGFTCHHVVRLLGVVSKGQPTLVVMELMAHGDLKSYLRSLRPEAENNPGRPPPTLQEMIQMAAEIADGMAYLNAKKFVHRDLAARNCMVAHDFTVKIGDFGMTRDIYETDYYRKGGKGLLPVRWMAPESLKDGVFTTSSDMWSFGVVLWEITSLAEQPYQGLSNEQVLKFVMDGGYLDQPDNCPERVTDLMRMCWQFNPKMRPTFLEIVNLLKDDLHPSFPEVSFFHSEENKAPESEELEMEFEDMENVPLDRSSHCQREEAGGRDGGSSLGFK
Protocol: as §1

A375 malignant melanoma = experiment: Inhibition of cell proliferation, 14C-thymidine incorporation, A375; format: cell-based; conditions: Homo sapiens, A-375
Protocol: The ability of a test compound to inhibit the proliferation of cell growth was determined by measuring incorporation of ^14C-labelled thymidine into newly synthesized DNA within the cells. This method was used on cell lines derived from carcinomas originating from several tissues such as HeLa cervical adenocarcinoma (American Type Culture Collection (ATCC), Virginia, Cat. #CCL-2), HCT-116 colon carcinoma (CCL-247), MDA-MB-231 (Xenogen Corp.), PC-3 prostate adenocarcinoma (ATCC CRL-1435) and A375 malignant melanoma (ATCC CRL-1619).
Using this method, the effect of a compound on cell growth of cells with many different phenotypes can be determined. Cells were trypsinized and counted and 3000–8000 cells were added to each well of a 96-well CytoStar tissue culture treated scintillating microplate (Amersham #RPNQ0160) in complete medium in a volume of 100 μl. Cells were incubated for 24 hours in complete medium at 37° C. in an atmosphere containing 5% CO2. 1 μL of test compound in 100% DMSO was then added to the wells of the plate. DMSO only was added to control wells. Cells were incubated for 24 more hours in complete medium at 37° C. in an atmosphere containing 5% CO2. […] The degree of methyl ^14C-thymidine incorporation was quantified on a Packard Top Count.

T1 sequence (P63086 whole entry): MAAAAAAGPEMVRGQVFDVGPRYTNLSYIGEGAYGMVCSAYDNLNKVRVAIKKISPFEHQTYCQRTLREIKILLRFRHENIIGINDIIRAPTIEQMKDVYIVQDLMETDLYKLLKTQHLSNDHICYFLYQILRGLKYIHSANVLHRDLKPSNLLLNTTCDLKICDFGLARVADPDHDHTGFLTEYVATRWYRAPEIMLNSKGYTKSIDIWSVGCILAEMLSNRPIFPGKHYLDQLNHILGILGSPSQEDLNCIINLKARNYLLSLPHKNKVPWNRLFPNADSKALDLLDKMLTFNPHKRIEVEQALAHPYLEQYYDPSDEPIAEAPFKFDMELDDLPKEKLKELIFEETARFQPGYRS

Structure (SMILES) | IC50 (MAP Kinase ERK-2) [µM] | IC50 (Insulin Receptor Kinase) [µM] | IC50 (A375 malignant melanoma) [µM]
OCCCNc1cncc(-c2ncnc(Nc3cccc(Cl)c3)n2)c1 [Compound 1, 3-((5-(4-((3-chlorophenyl)amino)-1,3,5-triazin-2-yl)-3-pyridinyl)amino)-1-propanol] | > 100 | 18.2 | 
OCCCNc1cc(-c2ncnc(Nc3cccc(Cl)c3)n2)ccn1 [Compound 2, 3-((4-(4-((3-chlorophenyl)amino)-1,3,5-triazin-2-yl)-2-pyridinyl)amino)-1-propanol] | > 10 | > 10 | 0.08

— patent publication US7205298B2, “Substituted triazine kinase inhibitors” (Janssen Pharmaceutica N.V., priority 2002, dated 2007)
